From patent publication US12234271B2 (Synthorx, Inc., priority 2019, dated 2025)

Experiments:
[1] = biological target: T1, IL-2 receptor alpha beta gamma (Homo sapiens, UniProt P01589+P14784+P31785); assay: PathHunter IL-2 Cytokine Receptor agonist assay, alpha beta gamma; type: cell-based; conditions: U2OS PathHunter cells with IL-2Ralpha; mass of IL-2 polypeptide only, without mPEG or linker
T1 construct: host or cells: U2OS (PathHunter)
T1 sequence (P01589 22-272): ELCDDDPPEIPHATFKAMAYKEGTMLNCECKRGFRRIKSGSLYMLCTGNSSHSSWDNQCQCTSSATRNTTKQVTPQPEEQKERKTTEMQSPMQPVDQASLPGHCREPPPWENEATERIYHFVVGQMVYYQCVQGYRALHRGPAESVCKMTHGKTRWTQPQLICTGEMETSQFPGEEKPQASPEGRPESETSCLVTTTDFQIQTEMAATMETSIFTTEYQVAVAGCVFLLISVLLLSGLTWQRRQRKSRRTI
T1 sequence (P14784 27-551): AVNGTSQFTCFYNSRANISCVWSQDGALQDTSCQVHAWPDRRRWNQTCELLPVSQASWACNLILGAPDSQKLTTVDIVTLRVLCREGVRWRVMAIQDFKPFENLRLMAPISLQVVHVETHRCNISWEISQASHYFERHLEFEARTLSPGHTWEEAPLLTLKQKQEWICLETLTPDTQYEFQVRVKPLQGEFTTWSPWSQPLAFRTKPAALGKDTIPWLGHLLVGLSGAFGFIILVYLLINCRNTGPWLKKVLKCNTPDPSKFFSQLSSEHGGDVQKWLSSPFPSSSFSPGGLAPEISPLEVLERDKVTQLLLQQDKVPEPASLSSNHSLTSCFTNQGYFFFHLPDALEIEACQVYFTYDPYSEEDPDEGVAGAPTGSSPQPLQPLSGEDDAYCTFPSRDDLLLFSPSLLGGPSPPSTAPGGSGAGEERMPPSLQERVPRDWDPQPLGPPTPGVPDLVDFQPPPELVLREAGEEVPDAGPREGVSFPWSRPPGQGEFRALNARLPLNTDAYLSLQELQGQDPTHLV
T1 sequence (P31785 23-369): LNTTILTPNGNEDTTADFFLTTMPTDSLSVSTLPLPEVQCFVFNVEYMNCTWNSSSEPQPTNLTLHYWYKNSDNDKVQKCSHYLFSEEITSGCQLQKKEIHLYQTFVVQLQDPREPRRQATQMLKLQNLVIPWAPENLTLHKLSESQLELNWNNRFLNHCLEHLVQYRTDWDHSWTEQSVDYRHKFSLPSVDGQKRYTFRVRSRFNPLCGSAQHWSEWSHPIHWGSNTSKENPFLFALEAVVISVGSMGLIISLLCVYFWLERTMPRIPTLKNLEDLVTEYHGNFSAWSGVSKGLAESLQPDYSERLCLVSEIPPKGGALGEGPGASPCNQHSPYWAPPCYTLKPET
Experimental: (§1) For example, the compounds labelled “D20_30” in this example is the compound having SEQ ID NO: 4 in which the structure of Formula (II), Formula (III), or a mixture of Formula (II) and (III) was substituted at the D20 residue (SEQ ID NO: 67) with a PEG group having a molecular weight of 30 kDa. Similarly, the following compounds were tested in this Example:
(§2) A second cell line was engineered to express the IL-2Ralpha subunit.
(§3) PathHunter cell lines were expanded from freezer stocks according to standard procedures. Cells were seeded in a total volume of 20 μL into white walled, 384-well microplates and incubated for the appropriate time prior to testing. […] Intermediate dilution of sample stocks was performed to generate 5× sample in assay buffer. About 5 μL of 5× sample was added to cells and incubated at 37° C. for a period of from 6 hours to 16 hours depending on the assay. Vehicle concentration was 1%. […] For some assays, activity was detected using a high sensitivity detection reagent (PathHunter Flash Kit) to improve assay performance. […] Microplates were read following signal generation with a PerkinElmer Envision instrument for chemiluminescent signal detection.
(§4) Compound activity was analyzed using CBIS data analysis suite software (ChemInnovation, CA).

IL-2 receptor beta gamma = biological target: T2, IL-2 receptor beta gamma (Homo sapiens, UniProt P14784+P31785); assay: PathHunter IL-2 Cytokine Receptor agonist assay, beta gamma; type: cell-based; conditions: U2OS PathHunter cells IL-2Rbeta/gamma; mass of IL-2 polypeptide only, without mPEG or linker
T2 construct: host or cells: U2OS (PathHunter)
T2 sequence (P14784 27-551): T1 sequence (P14784 27-551)
T2 sequence (P31785 23-369): T1 sequence (P31785 23-369)
Experimental: as §1, §2, §3, §4

[2] = tested on: white blood cell count (WBC), lymphocyte count; assay: Hematology after single subcutaneous dose in Cynomolgus monkeys; type: in vivo, Cynomolgus monkey
Excerpt: Each of the conjugates described below, except H16_30 kDa and H16_50 kDa, had SEQ ID NO: 4 in which the indicated amino acid position is substituted with the structure of Formula (II), Formula (III), or a mixture of Formula (II) and (III), and they contain a PEG chain of the indicated size. For example, the variant labeled “L19_30 kDa” has SEQ ID NO: 4 in which the amino acid at position L19 is replaced by the structure of Formula (II), Formula (III), or a mixture of Formula (II) and (III), and contains a 30 kDa, linear mPEG group. For the H16_30 kDa and H16_50 kDa variants, the compounds had SEQ ID NO: 4 in which the indicated amino acid position is substituted with the structure of Formula (IV), Formula (V), or a mixture of Formula (IV) and […] a linear, mPEG group having a molecular weight of 30 kDa or 50 kDa, respectively.
Blood samples were taken from each animal at the following time points: Samples for hematology: Day −1, Day 1 (Predose), 3, 6, 10, 15 and 22. Samples for pharmacokinetics and pharmacodynamics: (Predose), 0.5, 1, 2, 4, 8, 24, 36, 48, 72, 96, 120, 144, 168, and 240, 360, 528 (Day 22) hours post-dose. Cytokine sample collection and analysis: Day −1, and Day 1 (Predose), 8, 24, 72, 120 and 168, 360, and 528 (Day 22) hours post-dose.

NK cells = assay: pSTAT5 signaling in human LRS-derived PBMC samples, NK cells (flow cytometry); type: cell-based; conditions: from MFI plots
Experimental: (§5) Conjugates of Table 3 were synthesized by modification of SEQ ID NO. 1.
(§6) These studies were performed at PrimityBio LLC (Fremont, CA).

CD8+ Tcells = assay: pSTAT5 signaling in human LRS-derived PBMC samples, CD8+ T cells (flow cytometry); type: cell-based; conditions: from MFI plots
Experimental: as §5, §6

Treg cells = assay: pSTAT5 signaling in human LRS-derived PBMC samples, Treg cells (flow cytometry); type: cell-based; conditions: for Fold increase in Treg EC50 vs native IL-2: compared to native IL-2 run in each individual experiment; for Treg cells, dose response EC50 for pSTAT5 signaling: human LRS samples, from MFI plots; for CD8+/Treg ratio: ratio of pSTAT5 EC50, human LRS samples
Experimental: as §5, §6

CTLL-2 = CTLL-2 proliferation; type: cell-based; conditions: mouse CTLL-2
Excerpt: FIG. 4A-FIG. 4B show the dose response curves for pSTAT5 signaling in human LRS primary cell (FIG. 4A) and proliferation response in mouse CTLL-2 populations (FIG. 4B).

[3] = cited from earlier work

| Substance | NK cells, dose response EC50 for pSTAT5 signaling (NK cells) [pg/ml] | CD8+ Tcells, dose response EC50 for pSTAT5 signaling (CD8+ Tcells) [pg/ml] | Fold increase in Treg EC50 vs native IL-2 (Treg cells) | Treg cells, dose response EC50 for pSTAT5 signaling (Treg cells) [pg/ml] | CD8+/Treg ratio (Treg cells) | CTLL-2 proliferation EC50 (CTLL-2) [ng/mL] | other results |
| --- | --- | --- | --- | --- | --- | --- | --- |
| H16_30kDa: SEQ ID NO: 4 with Formula (II), (III) or mixture at H16 (SEQ ID NO: 65), linear mPEG 30 kDa | – | – | – | – | – | – | Alpha beta gamma EC50 [1]: 3.3 ng/mL; Beta gamma EC50 (IL-2 receptor beta gamma): 5742 ng/mL |
| L19_30kDa: SEQ ID NO: 4 with Formula (II), (III) or mixture at L19 (SEQ ID NO: 66), 30 kDa linear mPEG | – | – | – | – | – | – | Date at the peak of lymphocytes ([2]; 0.03 mg/kg single subcutaneous dose): 6 days post; Date at the peak of lymphocytes ([2]; 0.16 mg/kg single subcutaneous dose): 6 days post |
| N88R: IL-2 variant of Table 3 labelled N88R, no PEG size given [reference compound] | 2312847 | 15025734 | 148 | 11082 | 1356 | 0.363 | – |
| N88_30kDa: SEQ ID NO: 4 with Formula (II), (III) or mixture at N88 (SEQ ID NO: 70), linear mPEG 30 kDa | – | – | – | – | – | – | Date at the peak of lymphocytes ([2]; 0.37 mg/kg single subcutaneous dose): 6 days post |
| V91K: IL-2 variant of Table 3 labelled V91K, no PEG size given [reference compound] | 20537 | 102255 | 3 | 142 | 720 | 0.0995 | – |
| human transferrin: 679 amino acid polypeptide that is about 80 kDa in size | – | – | – | – | – | – | half-life [3]: 170 to 288 h |
